The structures appear in SMILES notation. Where a SMILES comes first, the peptide text is derived from it. [ ]: non-standard residue; d: D form. The star is where a group is joined. Dolaproine = CO[C@@H]([C@@H]1CCCN1)[C@@H](C)C(=O)O; Dil = CC[C@H](C)[C@H](NC)[C@@H](CC(=O)O)OC; Doe = c1ccc(C[C@H](N*)c2nccs2)cc1; NMeV = CN[C@H](C(=O)O)C(C)C

The source of these data is patent US20170014524A1, “AURISTATIN-ANTIBODY CONJUGATES AND USES THEREOF” (The California Institute for Biomedical Research, priority 2015, published 2017).

Holding throughout (type): cell-based
Holding throughout (details): 600 nM to 30 pM, 4 days at 37° C.

The subject of experiment [1] is Ramos (CXCR4+) cells. Put plainly: Cytotoxicity (CellTiter-Glo cell viability, 4 days) in Ramos cells. The method, then: (§1) Cell viabilities were measured by addition of CellTiter-Glo (Promega) and the luminescent signals were read by EnVision plate reader.
(§2) The following illustrative examples are representative of embodiments of the compositions and methods described herein and are not meant to be limiting in any way. All cell lines were purchased from ATCC unless otherwise stated. Ramos, Jurkat, OPM-2 cells were cultured in RPMI with 10% FBS and 100 U/mL Penicillin Streptomycin. MDA-MB-231 cells were cultured in DMEM (high glucose) with 10% FBS, 1 mM sodium pyruvate, and 100 U/mL Penicillin Streptomycin. SKBR-3 cells were cultured in DMEM with 10% FBS and 1x Antibiotic-Antimycotic (100 U/mL Penicillin Streptomycin, 0.25 μg/mL Fungizone). […]
(§3) Ramos (CXCR4+), Jurkat (CXCR4+), and MDA-MB-231 (CXCR4−) cells were treated with either small molecule drugs, anti-CXCR4 (SEQ ID NOS: 3, 4), or anti-CXCR4-auristatin conjugates with concentrations ranging from 600 nM to 30 pM for 4 days at 37° C. Cell viabilities were measured by addition of CellTiter-Glo (Promega) and the luminescent signals were read by EnVision plate reader.
(§4) Briefly, 1000 cells/well were seeded in a 384-well plate (45 uL/well with their corresponding media) and incubated at 37° C. overnight. […] Plates were shaken and incubated for at least 10 min before the generated luminescent signals were read using PerkinElmer EnVision Multilabel Reader.

The subject of experiment [2] is Jurkat (CXCR4+) cells. Put plainly: Cytotoxicity (CellTiter-Glo cell viability, 4 days) in Jurkat cells. The method, then: as §1, §2, §3, §4
The test system of experiment [3] is MDA-MB-231 (CXCR4−) cells. Put plainly: Cytotoxicity (CellTiter-Glo cell viability, 4 days) in MDA-MB-231 cells. The method, then: as §1, §2, §3, §4

`CC[C@H](C)[C@@H]([C@@H](CC(=O)N1CCC[C@H]1[C@H](OC)[C@@H](C)C(=O)N[C@@H](Cc1ccccc1)c1nccs1)OC)N(C)C(=O)[C@@H](NC(=O)[C@@H](NC)C(C)C)C(C)C` [MMAD, monomethyl auristatin D] (H-[NMeV]V[Dil][Dolaproine]-Doe): the results for the half-inhibitory concentration (IC50) in experiment [1], in experiment [2] and in experiment [3] were 1.4 nM, 2.8 nM and 5.2 nM, respectively.
